Measured values as given in PMC6149898, “GPCR Modulation of Thieno[2,3-b]pyridine Anti-Proliferative Agents” (Molecules : A Journal of Synthetic Chemistry and Natural …, 2017).

Assays:
[1] = tested on: BR:T-47D; parameters: method as in earlier work; conditions: NCI-60 panel; ref [4],[5],[6],[7]; cited from earlier work
[2] = tested on: LE:MOLT-4; parameters: method as in earlier work; conditions: NCI-60 panel; ref [4],[5],[6],[7]; cited from earlier work
[3] = tested on: LE:RPMI-8226; parameters: method as in earlier work; conditions: NCI-60 panel; ref [4],[5],[6],[7]; cited from earlier work
[4] = tested on: ME:SK-MEL-5; parameters: method as in earlier work; conditions: NCI-60 panel; ref [4],[5],[6],[7]; cited from earlier work
[5] = tested on: OV:IGROV1; parameters: method as in earlier work; conditions: NCI-60 panel; ref [4],[5],[6],[7]; cited from earlier work
[6] = tested on: OV:OVCAR-8; parameters: method as in earlier work; conditions: NCI-60 panel; ref [4],[5],[6],[7]; cited from earlier work
[7] = tested on: RE:ACHN; parameters: method as in earlier work; conditions: NCI-60 panel; ref [4],[5],[6],[7]; cited from earlier work
[8] = target: ADRA2A (Homo sapiens, UniProt P08913); assay: gpcrMAX PathHunter beta-arrestin
[9] = target: BDKRB1 (Homo sapiens, UniProt P46663); assay: gpcrMAX PathHunter beta-arrestin
[10] = target: C5L2 (Homo sapiens, UniProt Q9P296); assay: gpcrMAX PathHunter beta-arrestin
[11] = target: CALCR-RAMP3 (Homo sapiens, UniProt O60896+P30988); assay: gpcrMAX PathHunter beta-arrestin
[12] = target: CCKAR (Homo sapiens, UniProt P32238); assay: gpcrMAX PathHunter beta-arrestin
[13] = target: CCKBR (Homo sapiens, UniProt P32239); assay: gpcrMAX PathHunter beta-arrestin
[14] = target: CCR10 (Homo sapiens, UniProt P46092); assay: gpcrMAX PathHunter beta-arrestin
[15] = target: CCR4 (Homo sapiens, UniProt P51679); assay: gpcrMAX PathHunter beta-arrestin
[16] = target: CCR5 (Homo sapiens, UniProt P51681); assay: gpcrMAX PathHunter beta-arrestin
[17] = target: CHRM4 (Homo sapiens, UniProt P08173); assay: gpcrMAX PathHunter beta-arrestin
[18] = target: CNR1 (Homo sapiens, UniProt P21554); assay: gpcrMAX PathHunter beta-arrestin
[19] = target: CNR2 (Homo sapiens, UniProt P34972); assay: gpcrMAX PathHunter beta-arrestin
[20] = target: CXCR3 (Homo sapiens, UniProt P49682); assay: gpcrMAX PathHunter beta-arrestin
[21] = target: DRD4 (Homo sapiens, UniProt P21917); assay: gpcrMAX PathHunter beta-arrestin
[22] = target: EBI2 (Homo sapiens, UniProt P32249); assay: gpcrMAX PathHunter beta-arrestin
[23] = target: EDG7 (Homo sapiens, UniProt Q9UBY5); assay: gpcrMAX PathHunter beta-arrestin
[24] = target: EDNRA (Homo sapiens, UniProt P25101); assay: gpcrMAX PathHunter beta-arrestin
[25] = target: F2R (Homo sapiens, UniProt P25116); assay: gpcrMAX PathHunter beta-arrestin
[26] = target: FFAR1 (Homo sapiens, UniProt O14842); assay: gpcrMAX PathHunter beta-arrestin
[27] = target: FPR1 (Homo sapiens, UniProt P21462); assay: gpcrMAX PathHunter beta-arrestin
[28] = target: GALR2 (Homo sapiens, UniProt O43603); assay: gpcrMAX PathHunter beta-arrestin
[29] = target: HRH4 (Homo sapiens, UniProt Q9H3N8); assay: gpcrMAX PathHunter beta-arrestin
[30] = target: HTR5A (Homo sapiens, UniProt P47898); assay: gpcrMAX PathHunter beta-arrestin
[31] = target: LHCGR (Homo sapiens, UniProt P22888); assay: gpcrMAX PathHunter beta-arrestin
[32] = target: MRGPRX1 (Homo sapiens, UniProt Q96LB2); assay: gpcrMAX PathHunter beta-arrestin
[33] = target: MTNR1A (Homo sapiens, UniProt P48039); assay: gpcrMAX PathHunter beta-arrestin
[34] = target: NMBR (Homo sapiens, UniProt P28336); assay: gpcrMAX PathHunter beta-arrestin
[35] = target: NPBWR2 (Homo sapiens, UniProt P48146); assay: gpcrMAX PathHunter beta-arrestin
[36] = target: P2RY11 (Homo sapiens, UniProt Q96G91); assay: gpcrMAX PathHunter beta-arrestin
[37] = target: PROKR1 (Homo sapiens, UniProt Q8TCW9); assay: gpcrMAX PathHunter beta-arrestin
[38] = target: PTAFR (Homo sapiens, UniProt P25105); assay: gpcrMAX PathHunter beta-arrestin
[39] = target: PTGER4 (Homo sapiens, UniProt P35408); assay: gpcrMAX PathHunter beta-arrestin
[40] = target: SSTR1 (Homo sapiens, UniProt P30872); assay: gpcrMAX PathHunter beta-arrestin

Chain of PTAFR (P25105 whole entry): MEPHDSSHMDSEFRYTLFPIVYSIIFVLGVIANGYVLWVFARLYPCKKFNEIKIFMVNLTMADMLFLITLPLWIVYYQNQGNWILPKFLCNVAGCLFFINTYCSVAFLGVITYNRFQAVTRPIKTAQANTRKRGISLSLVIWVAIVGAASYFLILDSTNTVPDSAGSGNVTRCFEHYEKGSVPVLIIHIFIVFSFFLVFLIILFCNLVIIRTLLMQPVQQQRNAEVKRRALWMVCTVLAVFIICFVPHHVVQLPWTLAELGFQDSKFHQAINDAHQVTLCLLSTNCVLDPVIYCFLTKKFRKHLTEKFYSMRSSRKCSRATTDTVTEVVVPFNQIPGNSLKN
Chain of FPR1 (P21462 whole entry): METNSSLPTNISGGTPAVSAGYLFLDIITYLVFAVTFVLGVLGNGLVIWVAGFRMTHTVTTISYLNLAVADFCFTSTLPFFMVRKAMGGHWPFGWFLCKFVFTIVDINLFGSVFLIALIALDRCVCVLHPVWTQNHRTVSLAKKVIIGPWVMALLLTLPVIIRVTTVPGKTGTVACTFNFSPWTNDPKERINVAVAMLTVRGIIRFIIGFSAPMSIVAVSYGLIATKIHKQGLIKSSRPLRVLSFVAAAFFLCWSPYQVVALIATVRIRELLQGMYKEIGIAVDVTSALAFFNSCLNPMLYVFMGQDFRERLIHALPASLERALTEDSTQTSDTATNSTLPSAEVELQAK
Chain of CCKBR (P32239 whole entry): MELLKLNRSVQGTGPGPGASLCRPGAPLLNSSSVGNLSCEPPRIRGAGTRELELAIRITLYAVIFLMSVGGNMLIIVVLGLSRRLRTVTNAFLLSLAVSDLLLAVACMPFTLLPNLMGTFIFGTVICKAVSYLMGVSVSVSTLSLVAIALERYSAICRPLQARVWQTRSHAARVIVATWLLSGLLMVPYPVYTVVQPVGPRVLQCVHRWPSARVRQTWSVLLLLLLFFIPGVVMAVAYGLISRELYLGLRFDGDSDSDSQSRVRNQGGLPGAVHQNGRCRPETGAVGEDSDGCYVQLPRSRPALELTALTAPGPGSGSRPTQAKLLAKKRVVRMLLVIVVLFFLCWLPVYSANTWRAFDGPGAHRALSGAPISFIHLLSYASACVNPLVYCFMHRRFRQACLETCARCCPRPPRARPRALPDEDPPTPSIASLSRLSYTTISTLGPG
Chain of NMBR (P28336 whole entry): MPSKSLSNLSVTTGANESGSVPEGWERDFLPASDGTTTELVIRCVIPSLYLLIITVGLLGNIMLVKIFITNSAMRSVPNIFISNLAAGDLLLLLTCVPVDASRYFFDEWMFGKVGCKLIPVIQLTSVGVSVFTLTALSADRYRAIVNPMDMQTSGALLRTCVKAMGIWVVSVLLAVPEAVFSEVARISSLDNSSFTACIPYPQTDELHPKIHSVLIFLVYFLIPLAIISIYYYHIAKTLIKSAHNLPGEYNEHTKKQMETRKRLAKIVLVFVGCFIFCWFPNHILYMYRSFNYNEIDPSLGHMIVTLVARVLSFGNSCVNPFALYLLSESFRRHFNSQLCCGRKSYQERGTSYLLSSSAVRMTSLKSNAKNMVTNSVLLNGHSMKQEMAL
Chain of GALR2 (O43603 whole entry): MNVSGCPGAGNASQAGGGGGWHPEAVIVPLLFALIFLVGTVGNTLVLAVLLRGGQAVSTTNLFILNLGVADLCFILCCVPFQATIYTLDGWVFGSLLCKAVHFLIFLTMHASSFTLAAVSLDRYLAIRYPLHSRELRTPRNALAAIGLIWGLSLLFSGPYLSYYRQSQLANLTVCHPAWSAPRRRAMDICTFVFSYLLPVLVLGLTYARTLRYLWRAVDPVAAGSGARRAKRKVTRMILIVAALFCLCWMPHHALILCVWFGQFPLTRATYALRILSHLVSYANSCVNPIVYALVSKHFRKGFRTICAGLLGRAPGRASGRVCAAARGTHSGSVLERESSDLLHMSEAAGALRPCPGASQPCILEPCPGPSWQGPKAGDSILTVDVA
Chain of DRD4 (P21917 whole entry): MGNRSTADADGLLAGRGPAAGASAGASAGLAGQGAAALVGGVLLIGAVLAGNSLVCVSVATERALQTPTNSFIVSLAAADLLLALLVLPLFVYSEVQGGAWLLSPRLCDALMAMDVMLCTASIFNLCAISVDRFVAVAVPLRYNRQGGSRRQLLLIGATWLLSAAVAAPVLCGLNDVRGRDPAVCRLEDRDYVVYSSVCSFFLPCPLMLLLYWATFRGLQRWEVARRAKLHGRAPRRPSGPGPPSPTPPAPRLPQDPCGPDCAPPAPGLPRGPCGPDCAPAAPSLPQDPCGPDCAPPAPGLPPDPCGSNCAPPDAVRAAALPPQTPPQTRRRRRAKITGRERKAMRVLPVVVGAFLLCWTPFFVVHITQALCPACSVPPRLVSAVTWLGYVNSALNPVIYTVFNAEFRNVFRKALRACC
Chain of P2RY11 (Q96G91 whole entry, one chain of several): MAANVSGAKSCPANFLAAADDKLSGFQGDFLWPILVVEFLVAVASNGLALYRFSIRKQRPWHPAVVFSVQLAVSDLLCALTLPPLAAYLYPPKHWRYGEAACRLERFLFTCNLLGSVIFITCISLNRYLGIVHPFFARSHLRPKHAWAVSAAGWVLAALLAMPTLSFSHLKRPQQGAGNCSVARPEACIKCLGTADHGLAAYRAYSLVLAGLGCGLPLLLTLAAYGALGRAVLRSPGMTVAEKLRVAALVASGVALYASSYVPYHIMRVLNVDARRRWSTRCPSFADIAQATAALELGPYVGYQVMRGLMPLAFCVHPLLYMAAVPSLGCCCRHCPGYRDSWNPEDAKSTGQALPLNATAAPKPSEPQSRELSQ
Chain of CXCR3 (P49682 whole entry): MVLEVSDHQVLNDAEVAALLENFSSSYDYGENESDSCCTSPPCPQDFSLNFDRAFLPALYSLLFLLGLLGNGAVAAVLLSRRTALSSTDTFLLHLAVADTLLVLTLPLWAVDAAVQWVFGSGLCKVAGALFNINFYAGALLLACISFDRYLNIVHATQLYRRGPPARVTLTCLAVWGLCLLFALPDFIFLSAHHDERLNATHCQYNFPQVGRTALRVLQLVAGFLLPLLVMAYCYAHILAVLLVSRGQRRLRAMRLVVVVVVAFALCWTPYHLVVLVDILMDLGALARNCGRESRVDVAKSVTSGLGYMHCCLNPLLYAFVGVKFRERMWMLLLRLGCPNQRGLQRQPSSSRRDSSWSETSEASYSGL
Chain of BDKRB1 (P46663 whole entry): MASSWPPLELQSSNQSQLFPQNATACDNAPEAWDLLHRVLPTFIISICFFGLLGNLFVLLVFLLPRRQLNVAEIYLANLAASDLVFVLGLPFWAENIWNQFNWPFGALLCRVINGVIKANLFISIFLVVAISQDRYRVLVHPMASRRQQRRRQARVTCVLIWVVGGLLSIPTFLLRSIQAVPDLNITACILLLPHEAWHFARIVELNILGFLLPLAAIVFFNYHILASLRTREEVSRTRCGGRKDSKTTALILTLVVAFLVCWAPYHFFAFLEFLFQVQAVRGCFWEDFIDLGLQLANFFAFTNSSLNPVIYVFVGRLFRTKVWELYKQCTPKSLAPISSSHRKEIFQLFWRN
Chain of PTGER4 (P35408 whole entry): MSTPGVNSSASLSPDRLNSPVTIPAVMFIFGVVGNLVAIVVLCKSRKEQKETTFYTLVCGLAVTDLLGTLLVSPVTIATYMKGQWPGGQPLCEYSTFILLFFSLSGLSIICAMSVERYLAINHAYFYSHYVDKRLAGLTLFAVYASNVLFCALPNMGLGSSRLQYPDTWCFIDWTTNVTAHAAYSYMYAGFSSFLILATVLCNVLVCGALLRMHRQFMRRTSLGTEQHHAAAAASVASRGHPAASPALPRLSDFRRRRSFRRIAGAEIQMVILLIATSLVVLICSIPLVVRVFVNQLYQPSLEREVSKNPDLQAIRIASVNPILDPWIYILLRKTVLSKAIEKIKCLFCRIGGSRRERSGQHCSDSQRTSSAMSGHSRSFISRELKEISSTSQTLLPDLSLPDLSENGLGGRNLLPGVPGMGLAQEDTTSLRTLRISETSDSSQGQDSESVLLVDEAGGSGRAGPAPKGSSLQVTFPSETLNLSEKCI
Chain of CNR2 (P34972 whole entry): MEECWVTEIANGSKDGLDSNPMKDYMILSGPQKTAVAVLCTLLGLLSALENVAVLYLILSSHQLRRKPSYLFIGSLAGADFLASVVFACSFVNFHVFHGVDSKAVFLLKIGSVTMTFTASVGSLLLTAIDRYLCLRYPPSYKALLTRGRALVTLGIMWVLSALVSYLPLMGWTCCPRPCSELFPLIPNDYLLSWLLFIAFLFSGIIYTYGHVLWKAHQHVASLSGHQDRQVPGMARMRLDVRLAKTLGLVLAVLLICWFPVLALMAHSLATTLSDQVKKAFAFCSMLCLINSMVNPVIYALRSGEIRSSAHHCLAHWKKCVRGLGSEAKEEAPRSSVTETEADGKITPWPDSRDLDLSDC
Chain of C5L2 (Q9P296 whole entry): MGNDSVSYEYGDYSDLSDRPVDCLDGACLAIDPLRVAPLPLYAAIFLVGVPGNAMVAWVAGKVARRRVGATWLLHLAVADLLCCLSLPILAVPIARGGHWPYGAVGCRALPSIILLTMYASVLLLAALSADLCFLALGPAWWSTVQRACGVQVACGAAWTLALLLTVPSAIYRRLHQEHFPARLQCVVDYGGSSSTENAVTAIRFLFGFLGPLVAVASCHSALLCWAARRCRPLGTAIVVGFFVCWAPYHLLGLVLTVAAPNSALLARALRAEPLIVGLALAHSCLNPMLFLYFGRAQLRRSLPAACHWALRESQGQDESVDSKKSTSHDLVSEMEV
Chain of FFAR1 (O14842 whole entry): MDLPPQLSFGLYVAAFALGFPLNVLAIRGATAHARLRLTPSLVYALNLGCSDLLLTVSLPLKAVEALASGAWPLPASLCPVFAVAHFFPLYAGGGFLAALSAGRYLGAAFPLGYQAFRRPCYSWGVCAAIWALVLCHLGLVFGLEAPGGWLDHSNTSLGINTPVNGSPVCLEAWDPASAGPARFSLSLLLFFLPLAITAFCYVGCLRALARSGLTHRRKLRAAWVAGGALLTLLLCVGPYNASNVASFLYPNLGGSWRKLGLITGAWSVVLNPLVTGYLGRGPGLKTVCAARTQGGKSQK

Cc1c(Cl)cccc1NC(=O)c1sc2nc3c(cc2c1N)C(=O)CCC3 [Compound 1]
GI50 [1]: 55 nM | GI50 [2]: 476 nM | GI50 [3]: 256 nM | GI50 [4]: 237 nM | GI50 [5]: 196 nM | GI50 [6]: 279 nM | GI50 [7]: 83.7 nM | inhibition at 10 µM [8]: 8% | inhibition at 10 µM [9]: -9% | inhibition at 10 µM [10]: -20% | inhibition at 10 µM [11]: 17% | inhibition at 10 µM [12]: 6% | inhibition at 10 µM [13]: 12% | inhibition at 10 µM [14]: -49% | inhibition at 10 µM [15]: 26% | inhibition at 10 µM [16]: 11% | inhibition at 10 µM [17]: -10% | inhibition at 10 µM [18]: 23% | inhibition at 10 µM [19]: 16% | inhibition at 10 µM [20]: -19% | inhibition at 10 µM [21]: -7% | inhibition at 10 µM [22]: 4% | inhibition at 10 µM [23]: -8% | inhibition at 10 µM [24]: -18% | inhibition at 10 µM [25]: 5% | inhibition at 10 µM [26]: -59% | inhibition at 10 µM [27]: 16% | inhibition at 10 µM [28]: -5% | inhibition at 10 µM [29]: 32% | inhibition at 10 µM [30]: 2% | inhibition at 10 µM [31]: -2% | inhibition at 10 µM [32]: 6% | inhibition at 10 µM [33]: -15% | inhibition at 10 µM [34]: 28% | inhibition at 10 µM [35]: -5% | inhibition at 10 µM [36]: -6% | inhibition at 10 µM [37]: 6% | inhibition at 10 µM [38]: 2% | inhibition at 10 µM [39]: 7% | inhibition at 10 µM [40]: -62%
